Common to all, as to format: cell-based
The target of test [1] is T1, MRGPRX2 (Homo sapiens, UniProt Q96LB1).
T1 sequence (Q96LB1 1-330): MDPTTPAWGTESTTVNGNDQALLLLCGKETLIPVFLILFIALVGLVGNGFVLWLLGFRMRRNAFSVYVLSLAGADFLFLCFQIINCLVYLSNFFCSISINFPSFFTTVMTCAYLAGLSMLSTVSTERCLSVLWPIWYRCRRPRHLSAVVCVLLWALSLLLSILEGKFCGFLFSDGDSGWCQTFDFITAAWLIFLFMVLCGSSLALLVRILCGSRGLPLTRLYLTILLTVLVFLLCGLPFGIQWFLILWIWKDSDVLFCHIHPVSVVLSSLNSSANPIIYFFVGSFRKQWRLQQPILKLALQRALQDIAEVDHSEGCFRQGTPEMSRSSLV
The test is described as follows: MRGPRX2 FLIPR calcium mobilization assay. Also noted: host or cells: CHO-K1. As to conditions: CHO-K1 cells stably expressing human MRGPRX2; Ca2+ release; agonist Cortistatin-14 at EC80. As to the method:
Example A. MRGPRX2 FLIPR Calcium Mobilization Assay
Chinese hamster ovary (CHO-K1) cells stably expressing human MRGPRX2 were purchased from Genescript (Piscataway, NJ). The cells were maintained in culture medium (Ham's F-12K) containing 10% (v/v) FBS, 200 μg/mL Zeocin, 100 units/mL penicillin G and 100 μg/mL streptomycin (Life Technologies, Carlsbad, CA). For the assay, the cells were harvested and resuspended with culture medium without Zeocin before plating at 8000 cells per well in 20 μL in 384-well black clear bottom cell culture plates (VWR, Radnor, PA). After 24 hour culture at 37° C. and 5% CO2, the cells were loaded with 20 μL/well of calcium dye (FLIPR Calcium 6 Assay Kit, Molecular Devices, San Jose, CA) diluted in loading buffer (1× Hank's Balanced Salt Solution (HBSS), 5 mM probenecid, 20 mM 4-(2-hydroxyethyl)-1-piperazineethanesulfonic acid (HEPES), pH 7.4, VWR, Radnor, PA) followed with 45 min. incubation at 37° C. and 40 min. at r.t. in the dark. Cells were then treated with the addition of 10 uL/well test compounds with a range of increasing concentrations diluted in the assay buffer (1×HBSS, 20 mM HEPES, pH 7.4, VWR, Radnor, PA) with FLIPR Penta (Molecular Devices. San Jose, CA) and incubated for 30 min. at r.t. Ca^2+ release was measured with FLIPR Penta with 10 seconds basal fluorescence measurement, then 12.5 μL of 5× agonist Cortistatin-14 (Tocris, Minneapolis, MN) at final concentration corresponding to the EC80 were added followed with continued fluorescence signal monitoring for an additional 110 seconds. The base line adjusted (median of first 10s base line) max value of the Relative Fluorescence Unit (RFU) was plotted against compound concentrations. Wells with no compound were served as the positive controls, and wells with high concentration of reference antagonist were used as negative controls. IC50 curves were globally fitted with 3- or 4-parameter Hill equation in a Genedata Screener (Genedata Basel, Switzerland).

For test [2], the target named is T1, MRGPRX2. The test is described as follows: MRGPRX2 β-Arrestin recruitment assay (PathHunter). Set-up: host or cells: CHO-K1 (PathHunter). As to conditions: PathHunter CHO-K1 MRGPRX2 β-Arrestin cell line; agonist Cortistatin 14 0.25 μM. A digest of the protocol: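 CHO-K1 PathHunter cells co-expressing ProLink-tagged MRGPRX2 and enzyme-acceptor-tagged β-arrestin were preincubated with compound 1 h at 37° C., then stimulated with cortistatin-14 (0.25 μM final) for 90 min. Enzyme-complementation luminescence read after 1 h detection; data normalized to DMSO and reference antagonist, IC50 from 3- or 4-parameter Hill fit.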

Test [3] concerns the target T1, MRGPRX2. Kind of test: MRGPRX2 IP1 HTRF assay. As to conditions: CHO-K1 cells stably expressing human MRGPRX2; IP1 accumulation; agonist Cortistatin 14 1 μM. Set-up: host or cells: CHO-K1. In a few lines:
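CHO-K1 cells stably expressing human MRGPRX2, preincubated with compound 1 h at 37 °C, then stimulated with 1 μM Cortistatin 14 for 1 h. IP1 measured by HTRF against standard curve, normalized to DMSO and reference antagonist controls; IC50 from 3- or 4-parameter Hill fit.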

Consider `NS(=O)(=O)N1CC[C@](CNc2cc(C(F)(F)F)nc3cc(C(F)(F)F)nn23)(c2ccccc2)C1` (stereo in doubt) [Example 3, 3-(((2,5-Bis(trifluoromethyl)pyrazolo[1,5-a]pyrimidin-7-yl)amino)methyl)-3-phenylpyrrolidine-1-sulfonamide], for which the results for the IC50 at MRGPRX2 [1], at MRGPRX2 [2] and on MRGPRX2 [3] were 0.1 to 100 nM, 100 to 1000 nM and 0.1 to 100 nM, respectively.

In the case of `NC(=O)N1CCC(CNc2cc(C(F)(F)F)nc3cc(C(F)(F)F)nn23)(c2ccccc2)C1` (centres unmarked) [Example 4, 3-(((2,5-Bis(trifluoromethyl)pyrazolo[1,5-a]pyrimidin-7-yl)amino)methyl)-3-phenylpyrrolidine-1-carboxamide], the IC50 at MRGPRX2 [1], at MRGPRX2 [2] and on MRGPRX2 [3] was 0.1 to 100 nM throughout.

As for `NS(=O)(=O)N1CCC(CNc2cc(C(F)(F)F)nc3cc(C(F)(F)F)nn23)(c2ccccc2)CC1` [Example 6, 4-(((2,5-Bis(trifluoromethyl)pyrazolo[1,5-a]pyrimidin-7-yl)amino)methyl)-4-phenylpiperidine-1-sulfonamide], the IC50 at MRGPRX2 [1], on MRGPRX2 [2] and on MRGPRX2 [3] was 0.1 to 100 nM throughout.

As for `Cc1cc2nc(C(F)(F)F)cc(NCC3(c4ccccc4)CCNCC3)n2n1` [Example 8, 2-Methyl-N-((4-phenylpiperidin-4-yl)methyl)-5-(trifluoromethyl)pyrazolo[1,5-a]pyrimidin-7-amine], the half-inhibitory concentration (IC50) at MRGPRX2 [1] lay in the range of 0.1 to 100 nM; at MRGPRX2 [2], 0.1 to 100 nM; at MRGPRX2 [3] it was 100 to 1000 nM.

For the compound `NS(=O)(=O)N1CC(CNc2cc(C(F)(F)F)nc3cc(C(F)(F)F)nn23)(n2cc(F)cn2)C1` [Example 9, 3-(((2,5-Bis(trifluoromethyl)pyrazolo[1,5-a]pyrimidin-7-yl)amino)methyl)-3-(4-fluoro-1H-pyrazol-1-yl)azetidine-1-sulfonamide], the IC50 on MRGPRX2 [1], at MRGPRX2 [2] and at MRGPRX2 [3] was 0.1 to 100 nM each time.

Turning to `CNC(=O)N1CCC(CNc2cc(C)nc3nc(C(F)(F)F)nn23)(c2ccccc2)CC1` [Example 18, N-Methyl-4-(((5-methyl-2-(trifluoromethyl)-[1,2,4]triazolo[1,5-a]pyrimidin-7-yl)amino)methyl)-4-phenylpiperidine-1-carboxamide], the IC50 at MRGPRX2 [1], on MRGPRX2 [2] and at MRGPRX2 [3] was 0.1 to 100 nM each time.

With `O=C(N1CCC(CNc2cccc3nc(C(F)(F)F)cn23)(c2ccccc2)CC1)N1CC(F)(F)C1` [Example 19, (3,3-Difluoroazetidin-1-yl)(4-phenyl-4-(((2-(trifluoromethyl)imidazo[1,2-a]pyridin-5-yl)amino)methyl)piperidin-1-yl)methanone], the IC50 on MRGPRX2 [1] and at MRGPRX2 [3] was 0.1 to 100 nM each time.

Turning to `CC(=O)N1CCC(CNc2cccc3nc(C(F)(F)F)cn23)(c2ccccc2)CC1` [Example 20, 1-(4-Phenyl-4-(((2-(trifluoromethyl)imidazo[1,2-a]pyridin-5-yl)amino)methyl)piperidin-1-yl)ethan-1-one], the 50% inhibitory concentration (IC50) at MRGPRX2 [1], on MRGPRX2 [2] and on MRGPRX2 [3] was 0.1 to 100 nM throughout.

In the case of `NC(=O)N1CCC(CNc2cc(C(F)(F)F)nc3cc(Br)nn23)(c2ccc(F)cn2)CC1` [Example 22, 4-(((2-Bromo-5-(trifluoromethyl)pyrazolo[1,5-a]pyrimidin-7-yl)amino)methyl)-4-(5-fluoropyridin-2-yl)piperidine-1-carboxamide], the concentration for half-maximal inhibition (IC50) on MRGPRX2 [1] and at MRGPRX2 [3] was 0.1 to 100 nM in each case.

Regarding `OCCN1CCC(CNc2cccc3nc(C(F)(F)F)cn23)(c2ccc(F)cn2)CC1` [Example 23, 2-(4-(5-Fluoropyridin-2-yl)-4-(((2-(trifluoromethyl)imidazo[1,2-a]pyridin-5-yl)amino)methyl)piperidin-1-yl)ethan-1-ol], the IC50 on MRGPRX2 [1] and on MRGPRX2 [3] was 100 to 1000 nM in each case.

Consider `N#CCC(=O)N1CCC(CNc2cccc3nc(C(F)(F)F)cn23)(c2ccc(F)cn2)CC1` [Example 24, 3-(4-(5-Fluoropyridin-2-yl)-4-(((2-(trifluoromethyl)imidazo[1,2-a]pyridin-5-yl)amino)methyl)piperidin-1-yl)-3-oxopropanenitrile], for which the concentration for half-maximal inhibition (IC50) lay within 0.1 to 100 nM at MRGPRX2 [1] and 100 to 1000 nM on MRGPRX2 [3].

On to `CNC(=O)N1CCC(CNc2cccc3nc(C(F)(F)C(F)(F)F)cn23)(c2ccccc2)CC1` [Example 26, N-Methyl-4-(((2-(perfluoroethyl)imidazo[1,2-a]pyridin-5-yl)amino)methyl)-4-phenylpiperidine-1-carboxamide], for which the half-inhibitory concentration (IC50) at MRGPRX2 [1] and on MRGPRX2 [3] was 0.1 to 100 nM throughout.

For the compound `CNC(=O)N1CCC(CNc2cc(Cl)cc3nc(C(F)(F)F)cn23)(c2ccccc2)CC1` [Example 27, 4-(((7-Chloro-2-(trifluoromethyl)imidazo[1,2-a]pyridin-5-yl)amino)methyl)-N-methyl-4-phenylpiperidine-1-carboxamide], the IC50 on MRGPRX2 [1] and at MRGPRX2 [3] was 0.1 to 100 nM each time.

As to `CNC(=O)N1CCC(CNc2cc(C)cc3nc(C(F)(F)F)cn23)(c2ccccc2)CC1` [Example 28, N-Methyl-4-(((7-methyl-2-(trifluoromethyl)imidazo[1,2-a]pyridin-5-yl)amino)methyl)-4-phenylpiperidine-1-carboxamide], the 50% inhibitory concentration (IC50) at MRGPRX2 [1] and on MRGPRX2 [3] was 0.1 to 100 nM each time.

In the case of `CNC(=O)N1CCC(CNc2cccc3nc(C(C)C)cn23)(c2ccccc2)CC1` [Example 29, 4-(((2-Isopropylimidazo[1,2-a]pyridin-5-yl)amino)methyl)-N-methyl-4-phenylpiperidine-1-carboxamide], the IC50 at MRGPRX2 [1] lay in the range of 0.1 to 100 nM; at MRGPRX2 [3], 100 to 1000 nM.

As to `NS(=O)(=O)N1CC(CNc2cccc3nc(C(F)(F)F)cn23)(c2ccc(F)cc2)C1` [Example 34, 3-(4-Fluorophenyl)-3-(((2-(trifluoromethyl)imidazo[1,2-a]pyridin-5-yl)amino)methyl)azetidine-1-sulfonamide], the IC50 at MRGPRX2 [1] and on MRGPRX2 [3] was 0.1 to 100 nM in each case.

As for `NC(=O)N1CC(CNc2cccc3nc(C(F)(F)F)cn23)(c2ccc(F)cc2)C1` [Example 35, 3-(4-Fluorophenyl)-3-(((2-(trifluoromethyl)imidazo[1,2-a]pyridin-5-yl)amino)methyl)azetidine-1-carboxamide], the half-maximal inhibitory concentration (IC50) on MRGPRX2 [1] and at MRGPRX2 [3] was 0.1 to 100 nM throughout.

On to `FC(F)(F)c1cn2c(NCC3(c4ccc(Br)cc4)CCC3)cccc2n1` [Example 38, N-((1-(4-Bromophenyl)cyclobutyl)methyl)-2-(trifluoromethyl)imidazo[1,2-a]pyridin-5-amine], for which the concentration for half-maximal inhibition (IC50) on MRGPRX2 [1] and on MRGPRX2 [3] was 0.1 to 100 nM in each case.

As for `Cc1cc2nc(C(F)(F)F)cc(NCC3(c4ccccc4)CCOC3)n2n1` (centres unmarked) [Example 77, 2-Methyl-N-((3-phenyltetrahydrofuran-3-yl)methyl)-5-(trifluoromethyl)pyrazolo[1,5-a]pyrimidin-7-amine], the IC50 on MRGPRX2 [1] fell in the range of 0.1 to 100 nM; on MRGPRX2 [3], 100 to 1000 nM.

As for `N#Cc1cc2nc(Cl)cc(NCC3(c4ccccc4)CCNCC3)n2n1` [Example 104, 5-Chloro-7-(((4-phenylpiperidin-4-yl)methyl)amino)pyrazolo[1,5-a]pyrimidine-2-carbonitrile], the IC50 at MRGPRX2 [1] was 100 to 1000 nM; at MRGPRX2 [3], greater than 1000 nM.

(Values after patent US20250084087A1, “BICYCLIC HETEROCYCLES AS MRGPRX2 ANTAGONISTS” (Incyte Corporation, priority 2023, published 2025).)
